# From US10799478B2, “Treatment of androgen deprivation therapy associated symptoms” (priority 2014, dated 2020)
# Where two headings read alike, the source gives them in different places.
# Assays:
# ORX Wistar male rats = assay: In Vivo Study to Explore Direct Antagonist Effect of Example 1 in the Presence of TE; set-up: species or system rat; conditions: for Seminal Vesicle Wet Weights, Abs(Dif) − LSD / Prostate Weights, Abs(Dif) − LSD: vs TE alone; for Prostate Weight, % Sham / SV Weight, % Sham: 8 weeks
# Procedure: Route of administration for all groups except TE is oral. TE is administered subcutaneously. At the end of 8 weeks of daily dosing, rats are euthanized, weighed & tissue harvested. Levator ani, prostates, and seminal vesicles are collected from each animal. Results are plotted as means±SE.
# [1] = system: LnCAP human prostate cancer cells; assay: LnCAP Gene Expression; type: cell-based
# in vivo = conditions: both, Sprague-Dawley, rat, in vivo, po
# Procedure: (§1) Vehicle controls (15 rats/sex in main study and 5 rats/sex in recovery study) are given daily oral gavage dose of 5% Vitamin E TPGS, 1% hydroxyethylcellulose, 0.05% Dow Corning Antifoam 1510-US in purified water. Fifteen males and 15 females are assigned to each treatment main study group. Five males and 5 females are assigned to the recovery study for the vehicle control and 150 mg/kg/day groups. […] All administrations are given in a 15 mL/kg volume.
# Sprague-Dawley rat = assay: in vivo; conditions: for Male group mean AUC0-24 hr near termination / Prostate weight (mean % decrease): rats, 6 months
# Procedure: as §1
# [2] = 52 Week Toxicity and Toxicokinetic Study in Dogs; type: in vivo, dog; conditions: beagle, dog, in vivo; for Cmax / AUC(0-t): po
# Procedure: (§2) Male and female purebred beagle dogs are assigned to groups, and doses are administered according to Table 9 via oral capsules containing 1 ml/kg of 0 [1% (w/v) carboxymethylcellulose sodium (low viscosity/25-50 cps), 0.5% (w/v) sodium lauryl sulfate and 0.05% (v/v) Dow Corning® Antifoam 1510-US in reverse osmosis water] […] All animals receive the same number of capsules, and Group 1 animals receive capsules containing vehicle control article only. Three animals per sex from Groups 1 and 4 are designated as recovery animals.
# (§3) Assessment of toxicity is based on mortality, clinical signs, body weight and body weight change, food consumption, ophthalmic and neurologic evaluations, ECG measurements, hormone analysis (testosterone, progesterone, luteinizing hormone, and follicle stimulating hormone), semen evaluation (ejaculate volume and sperm number, density, morphology, and motility), and clinical and anatomic pathology. Blood samples are collected for exploratory metabolite analysis and toxicokinetic evaluations.
# beagle dogs = assay: 52 Week Toxicity and Toxicokinetic Study in Dogs; type: in vivo, dog
# Procedure: as §2, §3
# healthy human volunteers = assay: Phase Ia Study in Healthy Volunteers; type: in vivo; conditions: for Change from Baseline for Lean Muscle, Comparison to Placebo Difference / Change from Baseline for Lean Muscle, LS Mean: Day 28
# [3] = ORX + TE 1 mg/kg/d + Example 1 3 mg/kg/d po
# [4] = ORX + TE 1 mg/kg/d + Example 1 3 mg/kg/d
# [5] = ORX + TE 1 mg/kg/d + Example 1 10 mg/kg/d po
# [6] = ORX + TE 1 mg/kg/d + Example 1 10 mg/kg/d
# [7] = ORX + TE 1 mg/kg/d + Example 1 30 mg/kg/d
structure (smiles),measurement,setting,value
"CC(C)OC(=O)N[C@H]1Cc2c(n(Cc3ccccn3)c3ccc(C#N)cc23)C1 (single isomer, unassigned) [Example 1]","Seminal Vesicle Wet Weights, Abs(Dif) − LSD",ORX Wistar male rats; ORX + Example 1 10 mg/kg/d without TE,1.411
same,"Prostate Weight, % Sham",ORX Wistar male rats; [3],42.7 % Sham
same,"SV Weight, % Sham",ORX Wistar male rats; [3],53.5 % Sham
same,"Prostate Weights, Abs(Dif) − LSD",ORX Wistar male rats; [4],−0.11
same,"Seminal Vesicle Wet Weights, Abs(Dif) − LSD",ORX Wistar male rats; [4],−0.34
same,"Prostate Weight, % Sham",ORX Wistar male rats; [5],30.3 % Sham
same,"SV Weight, % Sham",ORX Wistar male rats; [5],42.0 % Sham
same,"Prostate Weights, Abs(Dif) − LSD",ORX Wistar male rats; [6],0.036
same,"Seminal Vesicle Wet Weights, Abs(Dif) − LSD",ORX Wistar male rats; [6],0.078
same,"Prostate Weight, % Sham",ORX Wistar male rats; ORX + TE 1 mg/kg/d + Example 1 30 mg/kg/d po,31.2 % Sham
same,"Prostate Weights, Abs(Dif) − LSD",ORX Wistar male rats; [7],0.025
same,"Seminal Vesicle Wet Weights, Abs(Dif) − LSD",ORX Wistar male rats; [7],0.536
same,prostate wet weight in mg normalized to body weight,ORX Wistar male rats; co-treatment with 1 mg/Kg TE,dose-dependent decrease
same,"seminal vesicle wet weight in mg normalized to body weight, induced by TE alone",ORX Wistar male rats; combination with TE 1 mg/Kg-day and various doses of Example 1,trend in decreasing
same,EC50,"[1]; Homo sapiens, LNCaP, AR gene, read-out: LnCAP Gene Expression EC50 (nM) AR",1.64 nM
same,androgenicity in vitro in human prostate cancer cells,[1]; comparison with R1881,less androgenic than R1881
same,NOAEL,in vivo,< 15 mg/kg/day
same,morphologic findings in the testes,"Sprague-Dawley rat; all dose levels (15, 150, 1500 mg/kg/day)",considered to be adverse
same,accumulation after multiple doses,Sprague-Dawley rat; any dose group up to Day 182,not observed
same,higher body weight than concurrent controls,"Sprague-Dawley rat; females, end of treatment period",22%
same,body weight change compared to control,"Sprague-Dawley rat; males, end of treatment period",−12%
same,Male group mean AUC0-24 hr near termination,Sprague-Dawley rat; 15 mg/kg/day,15902 ng·h/mL
same,Male group mean AUC0-24 hr near termination,Sprague-Dawley rat; 150 mg/kg/day,34132 ng·h/mL
same,Prostate weight (mean % decrease),Sprague-Dawley rat; 150 mg/kg/day,↓ 30%
same,Male group mean AUC0-24 hr near termination,Sprague-Dawley rat; 1500 mg/kg/day,82690 ng·h/mL
same,Prostate weight (mean % decrease),Sprague-Dawley rat; 1500 mg/kg/day,↓ 34%
same,NOAEL at 52 weeks,"[2]; both sexes, oral, daily capsule, 52 weeks",100 mg/kg
same,Cmax,"[2]; female, females, 100 mg/kg, after 361 days of dosing",1880 ng/mL
same,AUC(0-t),"[2]; female, females, 100 mg/kg, after 361 days of dosing, read-out: AUC0-24 h",31500 ng·h/mL
same,AUC(0-t),"[2]; male, dogs, 12 months, 3 mg/kg/day, read-out: Male group mean AUC0-24 hr near termination",3620 ng·h/mL
same,Cmax,"[2]; male, males, 100 mg/kg, after 361 days of dosing",1500 ng/mL
same,survival until the scheduled sacrifice,"beagle dogs; 3, 10, 100 mg/kg",All animals survived
same,Accumulation after multiple dosing,"beagle dogs; dogs, 3 to 100 mg/kg",observed
same,changes from baseline in prostate-specific antigen levels compared with placebo,healthy human volunteers; any time point or any dose,no significant changes
same,"Change from Baseline for Lean Muscle, Comparison to Placebo Difference","healthy human volunteers; females, 5 mg",2298.22 g
same,"Change from Baseline for Lean Muscle, LS Mean","healthy human volunteers; females, 5 mg",1555.95 g
same,"Change from Baseline for Lean Muscle, Comparison to Placebo Difference","healthy human volunteers; females, 15 mg",3661.85 g
same,"Change from Baseline for Lean Muscle, LS Mean","healthy human volunteers; females, 15 mg",2919.58 g
same,"Change from Baseline for Lean Muscle, Comparison to Placebo Difference","healthy human volunteers; females, 25 mg",2224.51 g
same,"Change from Baseline for Lean Muscle, LS Mean","healthy human volunteers; females, 25 mg",1482.24 g
same,"Change from Baseline for Lean Muscle, Comparison to Placebo Difference","healthy human volunteers; females, 75 mg",2325.92 g
same,"Change from Baseline for Lean Muscle, LS Mean","healthy human volunteers; females, 75 mg",1583.65 g
same,"Change from Baseline for Lean Muscle, Comparison to Placebo Difference","healthy human volunteers; males, 1 mg",1548.97 g
same,"Change from Baseline for Lean Muscle, LS Mean","healthy human volunteers; males, 1 mg",675.52 g
same,"Change from Baseline for Prostate Specific Antigen, Comparison to Placebo Difference","healthy human volunteers; males, 1 mg, day 14",-0.10 µg/L
same,"Change from Baseline for Prostate Specific Antigen, LS Mean","healthy human volunteers; males, 1 mg, day 14",-0.06 µg/L
same,"Change from Baseline for Prostate Specific Antigen, Comparison to Placebo Difference","healthy human volunteers; males, 1 mg, day 28",-0.09 µg/L
same,"Change from Baseline for Prostate Specific Antigen, LS Mean","healthy human volunteers; males, 1 mg, day 28",-0.05 µg/L
same,"Change from Baseline for Prostate Specific Antigen, Comparison to Placebo Difference","healthy human volunteers; males, 1 mg, day 35",-0.01 µg/L
same,"Change from Baseline for Prostate Specific Antigen, LS Mean","healthy human volunteers; males, 1 mg, day 35",0.02 µg/L
same,"Change from Baseline for Lean Muscle, Comparison to Placebo Difference","healthy human volunteers; males, 5 mg",1461.11 g
same,"Change from Baseline for Lean Muscle, LS Mean","healthy human volunteers; males, 5 mg",587.66 g
same,"Change from Baseline for Prostate Specific Antigen, Comparison to Placebo Difference","healthy human volunteers; males, 5 mg, day 14",0.16 µg/L
same,"Change from Baseline for Prostate Specific Antigen, LS Mean","healthy human volunteers; males, 5 mg, day 14",0.20 µg/L
same,"Change from Baseline for Prostate Specific Antigen, Comparison to Placebo Difference","healthy human volunteers; males, 5 mg, day 28",-0.05 µg/L
same,"Change from Baseline for Prostate Specific Antigen, LS Mean","healthy human volunteers; males, 5 mg, day 28",-0.00 µg/L
same,"Change from Baseline for Prostate Specific Antigen, Comparison to Placebo Difference","healthy human volunteers; males, 5 mg, day 35",0.17 µg/L
same,"Change from Baseline for Prostate Specific Antigen, LS Mean","healthy human volunteers; males, 5 mg, day 35",0.20 µg/L
